According to US11000033B2, “Ketone or oxime compound, and herbicide” (NISSAN CHEMICAL CORPORATION, priority 2014, dated 2021):

What was measured:
Assay type in all cases: in vivo
Scirpus juncoides = assay: Test Example 1: herbicidal activity, application before weed generation in submerged conditions (symbol B); settings: application herbicide amount 320 g/ha
In short: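 Weeds are sown into submerged alluvial soil alongside transplanted 2.5-leaf rice, and the compound, as an emulsion diluted to a set rate, is applied onto the water before emergence. Rating on the 0–5 herbicidal-ratio scale follows 3 weeks of greenhouse growth at 25–30 °C.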

Monochoria vaginalis = assay: Test Example 2: herbicidal activity, application during weed generation in submerged conditions (symbol C); settings: Table 23; application herbicide amount 320 g/ha; grade 0-5 by criteria of Test Example 1
In short: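 Read-out: herbicidal effect on each species rated on a visual scale 3 weeks after treatment. Plants were raised together from seed in flooded alluvial soil (4 cm water) at 25° C. to 30° C. and treated at one to two leaves by water-surface application of diluted emulsion.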

Setaria viridis [1] = assay: Test Example 4: herbicidal effect by soil treatment (symbol G); settings: application herbicide amount 320 g/ha
In short: (§1)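 Seeds were sown in sterilized diluvial soil, covered with about 1.5 cm of soil, and the soil surface was sprayed with a water-diluted emulsion of the compound at a predetermined rate. Plants grew in a greenhouse at 25° C. to 30° C.; effects were scored visually 3 weeks after application.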

Avena fatua [2] = assay: Test Example 4: herbicidal effect by soil treatment (symbol I); settings: application herbicide amount 320 g/ha
In short: as §1

Apera spica-venti [3] = assay: Test Example 4: herbicidal effect by soil treatment (symbol L); settings: application herbicide amount 320 g/ha
In short: as §1

Veronica persica [4] = assay: Test Example 4: herbicidal effect by soil treatment (symbol R); settings: application herbicide amount 320 g/ha
In short: as §1

rice = assay: Test Example 4: effect on crop by soil treatment (symbol b); settings: application herbicide amount 320 g/ha
In short: (§2)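 Seeds were sown in spots on sterilized diluvial soil in a plastic box and covered with about 1.5 cm of soil. Plants were then grown in a greenhouse at 25° C. to 30° C.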

rapeseed [5] = assay: Test Example 4: effect on crop by soil treatment (symbol g); settings: application herbicide amount 320 g/ha
In short: as §2

Digitaria ciliaris = assay: Test Example 5: herbicidal effect by foliage application, plastic box (symbol F); settings: 320 g/ha, 3 weeks after application
In short: (§3)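 Effect is rated 3 weeks after a foliar spray of water-diluted emulsion concentrate at a predetermined herbicide amount. Plants had grown 14 days in a 25° C. to 30° C. greenhouse from seed in sterilized diluvial soil.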

Setaria viridis [6] = assay: Test Example 5: herbicidal effect by foliage application, plastic box (symbol G); settings: 320 g/ha, 3 weeks after application
In short: as §3

[7] = system: Echinochloa crus-galli var. crus-galli; assay: Test Example 5: herbicidal effect by foliage application, plastic box (symbol H); settings: 320 g/ha, 3 weeks after application
In short: as §3

Avena fatua [8] = assay: Test Example 5: herbicidal effect by foliage application, plastic box (symbol I); settings: 320 g/ha, 3 weeks after application
In short: as §3

Apera spica-venti [9] = assay: Test Example 5: herbicidal effect by foliage application, plastic box (symbol L); settings: 320 g/ha, 3 weeks after application
In short: as §3

Abutilon theophrasti = assay: Test Example 5: herbicidal effect by foliage application, plastic box (symbol M); settings: 320 g/ha, 3 weeks after application
In short: as §3

Chenopodium album = assay: Test Example 5: herbicidal effect by foliage application, plastic box (symbol O); settings: 320 g/ha, 3 weeks after application
In short: as §3

Veronica persica [10] = assay: Test Example 5: herbicidal effect by foliage application, plastic box (symbol R); settings: 320 g/ha, 3 weeks after application
In short: as §3

soybean = assay: Test Example 5: effect on crop by foliage application, plastic box (symbol d); settings: 320 g/ha, 3 weeks after application
In short: (§4)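 Greenhouse culture at 25° C. to 30° C. followed spot-like sowing into sterilized diluvial soil, with seed covered by roughly 1.5 cm of soil.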

rapeseed [11] = assay: Test Example 5: effect on crop by foliage application, plastic box (symbol g); settings: 320 g/ha, 3 weeks after application
In short: as §4

Structure (SMILES) | Herbicidal effect grade, B: Scirpus juncoides (Scirpus juncoides) | Herbicidal effect grade, C: Monochoria vaginalis (Monochoria vaginalis) | Herbicidal effect grade, G: Setaria viridis (Setaria viridis [1]) | Herbicidal effect grade, I: Avena fatua (Avena fatua [2]) | Herbicidal effect grade, L: Apera spica-venti (Apera spica-venti [3]) | Herbicidal effect grade, R: Veronica persica (Veronica persica [4]) | Effect on crop grade, b: directly sowed rice plant (rice) | Effect on crop grade, g: rapeseed (rapeseed [5]) | F: Digitaria ciliaris, herbicidal effect grade (Digitaria ciliaris) | G: Setaria viridis, herbicidal effect grade (Setaria viridis [6]) | H: Echinochloa crus-galli var. crus-galli, herbicidal effect grade [7] | I: Avena fatua, herbicidal effect grade (Avena fatua [8]) | L: Apera spica-venti, herbicidal effect grade (Apera spica-venti [9]) | M: Abutilon theophrasti, herbicidal effect grade (Abutilon theophrasti) | O: Chenopodium album, herbicidal effect grade (Chenopodium album) | R: Veronica persica, herbicidal effect grade (Veronica persica [10]) | d: soybean, effect on crop grade (soybean) | g: rapeseed, effect on crop grade (rapeseed [11])
CON=C(CC1CC(O)=C(c2c(C)cc(Br)cc2C)C1=O)C1CC1 (stereo not drawn) [9-002] | 2 (Herbicidal ratio of 20% or higher and lower than 40%) | 0 (Herbicidal ratio of 5% or lower (almost no effect)) | 5 (Herbicidal ratio of 90% or more (almost completely withered)) | 3 (Herbicidal ratio of 40% or higher and lower than 70%) | 5 (Herbicidal ratio of 90% or more (almost completely withered)) | 0 (Herbicidal ratio of 5% or lower (almost no effect)) | 5 (Herbicidal ratio of 90% or more (almost completely withered)) | 0 (Herbicidal ratio of 5% or lower (almost no effect)) | 5 (Herbicidal ratio of 90% or more (almost completely withered)) | 5 (Herbicidal ratio of 90% or more (almost completely withered)) | 5 (Herbicidal ratio of 90% or more (almost completely withered)) | 5 (Herbicidal ratio of 90% or more (almost completely withered)) | 5 (Herbicidal ratio of 90% or more (almost completely withered)) | 4 (Herbicidal ratio of 70% or higher and lower than 90%) | 0 (Herbicidal ratio of 5% or lower (almost no effect)) | 1 (Herbicidal ratio of 5% or higher and lower than 20%) | 0 (Herbicidal ratio of 5% or lower (almost no effect)) | 4 (Herbicidal ratio of 70% or higher and lower than 90%)
CON=C(CC1CC(O)=C(c2c(C)cc(-n3cc(Cl)cn3)cc2C)C1=O)C(C)C (stereo not drawn) [9-004] | 2 (Herbicidal ratio of 20% or higher and lower than 40%) | 0 (Herbicidal ratio of 5% or lower (almost no effect)) | 5 (Herbicidal ratio of 90% or more (almost completely withered)) | 2 (Herbicidal ratio of 20% or higher and lower than 40%) | 5 (Herbicidal ratio of 90% or more (almost completely withered)) | 0 (Herbicidal ratio of 5% or lower (almost no effect)) | 0 (Herbicidal ratio of 5% or lower (almost no effect)) | 0 (Herbicidal ratio of 5% or lower (almost no effect)) | 5 (Herbicidal ratio of 90% or more (almost completely withered)) | 5 (Herbicidal ratio of 90% or more (almost completely withered)) | 5 (Herbicidal ratio of 90% or more (almost completely withered)) | 5 (Herbicidal ratio of 90% or more (almost completely withered)) | 4 (Herbicidal ratio of 70% or higher and lower than 90%) | 0 (Herbicidal ratio of 5% or lower (almost no effect)) | 1 (Herbicidal ratio of 5% or higher and lower than 20%) | 0 (Herbicidal ratio of 5% or lower (almost no effect)) | 0 (Herbicidal ratio of 5% or lower (almost no effect)) | 3 (Herbicidal ratio of 40% or higher and lower than 70%)
